Key:
[1] = test system: glioblastoma cell line U87-MG; experiment: in vitro colony assay (survival fraction) after proton beam irradiation; settings: for cytotoxicity / cell kill compared to the proton beam treatment alone: 8 Gye single fraction protons plus compound, U87 cells exposed 96 hours before irradiation
Method: FIG. 1 is a graphic representation of the dose of irradiation (x-axis) versus the log survival fraction (y-axis) of log phase U87 human glioblastoma cells. Three groups were used. […] This molecule is synthesized by replacing the 2 position of the aromatic ring of the nitrogenous base with oxygen-18. When these cells are treated with protons, there is a chemical transmutation at the atomic level where upon the oxygen-18 atom is changed into radioactive fluorine-18.
Physiologic serum concentrations in normal and cancer patients the physiologic serum concentration is ˜0.3-1.2 μM. The cells were irradiated with 2 and 8 Gye with 160 MeV protons single fraction and cell death/survival was determined using a colony assay and calculation of survival fraction.

[2] = large doses, human cancer patients; cited from earlier work

Cc1cn([C@H]2C[C@H](O)[C@@H](CO)O2)c(=O)[nH]c1=O [Thymidine, reference compound]
effect on cell survival ([1]; same concentration X time exposure (0.5, 96 hours) plus 8 Gye protons): no effect | concentrations in the serum achieved [2]: milli-molar range

C2-^18O-Thymidine [2-HTd]
increased cell kill ([1]; 0.5 microgram HTd exposed for 96 hours in vitro, 8 Gye single fraction protons, versus protons alone (FIG. 1)): about half a log | cytotoxicity / cell kill compared to the proton beam treatment alone [1]: increased cytotoxicity | cytotoxicity / cell kill compared to the proton beam treatment alone ([1]; listed as heavy thymidine): greater cell kill | radiation sensitization ([1]; plus a single dose of 8 Gye of protons): proton specific radiation sensitization

Reference: patent US11396523B2, “Proton activated atomic medicine” (priority 2017, dated 2022)
